Measurements as given in patent publication US5047397A, “Linear analogs of atrial natriuretic peptides” (California Biotechnology Inc., priority 1988, dated 1991).
*1 amine or outer side, *2 acyl side, *3 side chain or, on linkers, in order; H or OH if unused. Where a SMILES comes first, the peptide text is derived from it. [ ]: non-standard residue; d: D form. The star is where a group is joined. X8 = N=C(N)NCCC[C@@H](C(=O)[*:2])N(CC1CCN([*:3])CC1)[*:1]; Butyryl(4-indol-3-yl) = O=C(CCCc1c[nH]c2ccccc12)*; Acetyl(2-naphthyloxy) = O=C(COc1ccc2ccccc2c1)*; X10 = O=C(CNc1ccc(C(=O)*)cc1)c1ccc2ccccc2c1; Acetyl(2-naphthyl) = O=C(Cc1ccc2ccccc2c1)*; X4 = O=C(Cc1ccc(NCCc2ccc3ccccc3c2)cc1)*; 2Naphthoyl = O=C(c1ccc2ccccc2c1)*; NMeI = CC[C@H](C)[C@H](NC)C(=O)O; X1 = O=C(Cc1ccc(N[*:1])cc1)[*:2]; tBuAla = CC(C)(C)C[C@H](N)C(=O)O; Cit = NC(=O)NCCC[C@H](N)C(=O)O; Phg = N[C@H](C(=O)O)c1ccccc1; Tle = CC(C)(C)[C@H](N)C(=O)O; 4Amb = NCc1ccc(C(=O)O)cc1; 4Abz = Nc1ccc(C(=O)O)cc1; Orn = NCCC[C@H](N)C(=O)O; Aoc = NCCCCCCCC(=O)O; Inp = O=C(O)C1CCNCC1

molecular target: T1, specific ANP receptor sites on BASM or BAE cells (Bos taurus, UniProt P10730); assay: Competitive displacement receptor binding of (125I)-rANP(126-150) on cultured cells; set-up: species or system bovine; settings: concentration of unlabeled peptide displacing 50% of maximal binding of 0.5 nM (125I)-rANP(126-150); BASM or BAE cells
T1 construct: specific receptor sites on BASM or BAE cells; endogenous in cells; host or cells: cultured BASM and BAE cells
T1 sequence (P10730 42-537): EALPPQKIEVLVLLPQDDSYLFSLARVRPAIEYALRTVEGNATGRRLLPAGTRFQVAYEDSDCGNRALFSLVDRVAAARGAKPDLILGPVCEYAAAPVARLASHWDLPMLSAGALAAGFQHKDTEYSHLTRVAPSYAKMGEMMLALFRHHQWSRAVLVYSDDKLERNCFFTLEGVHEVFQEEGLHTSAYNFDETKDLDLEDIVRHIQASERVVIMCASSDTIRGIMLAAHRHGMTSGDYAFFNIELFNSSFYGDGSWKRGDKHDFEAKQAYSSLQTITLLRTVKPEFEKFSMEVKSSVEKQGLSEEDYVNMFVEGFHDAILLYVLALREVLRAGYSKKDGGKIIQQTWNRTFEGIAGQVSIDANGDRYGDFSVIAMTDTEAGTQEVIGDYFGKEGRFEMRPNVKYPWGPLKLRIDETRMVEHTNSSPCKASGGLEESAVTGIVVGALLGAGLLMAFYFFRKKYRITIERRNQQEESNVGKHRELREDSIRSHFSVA
From the text: Analogous "competitive displacement" receptor binding assays are considered commonplace in the art for examining specific ligand-receptor interactions.
Assuming these ANP analogs act at one or more ANP receptor sites, then increased receptor affinity should reflect increased biological potency.

Structure (SMILES) | Ki(app) [nM]
CC[C@H](C)[C@H](NC(=O)[C@H](CCCNC(=N)N)NC(=O)[C@H](CC(=O)O)NC(=O)[C@H](CC(C)(C)C)NC(=O)[C@H](CCCNC(=N)N)NC(=O)CNC(=O)CNC(=O)Cc1ccc2ccccc2c1)C(N)=O [AP590, (2-NA)--G--G--R--tBuA--D--R--I--NH2] ({Acetyl(2-naphthyl)}-GGR[tBuAla]DRI-NH2) | 12.0
CC[C@H](C)[C@H](NC(=O)[C@H](CCCNC(=N)N)NC(=O)[C@H](CC(=O)O)NC(=O)[C@@H](NC(=O)[C@H](CCCNC(=N)N)NC(=O)CNC(=O)CNC(=O)Cc1ccc2ccccc2c1)C(C)(C)C)C(N)=O [AP591, (2-NA)--G--G--R--tBuG--D--R--I--NH2] ({Acetyl(2-naphthyl)}-GGR[Tle]DRI-NH2) | 14.0
CC[C@H](C)[C@H](NC(=O)[C@H](CCCN)NC(=O)[C@H](CC(=O)O)NC(=O)[C@@H](NC(=O)[C@H](CCCNC(=N)N)NC(=O)CNC(=O)CNC(=O)Cc1ccc2ccccc2c1)[C@@H](C)CC)C(N)=O [AP592, (2-NA)--G--G--R--I--D--Orn--I--NH2] ({Acetyl(2-naphthyl)}-GGRID[Orn]I-NH2) | 25.0
CC[C@H](C)[C@H](NC(=O)[C@H](CCCNC(N)=O)NC(=O)[C@H](CC(=O)O)NC(=O)[C@@H](NC(=O)[C@H](CCCNC(=N)N)NC(=O)CNC(=O)CNC(=O)Cc1ccc2ccccc2c1)[C@@H](C)CC)C(N)=O [AP593, (2-NA)--G--G--R--I--D--Cit--I--NH2] ({Acetyl(2-naphthyl)}-GGRID[Cit]I-NH2) | 55.0
CC[C@H](C)[C@H](NC(=O)[C@H](CCCNC(=N)N)NC(=O)CNC(=O)CNC(=O)Cc1ccc2ccccc2c1)C(=O)N[C@@H](CC(=O)O)C(=O)N[C@@H](CCCNC(=N)N)C(=O)N[C@@H](CC(C)(C)C)C(N)=O [AP594, (2-NA)--G--G--R--I--D--R--tBuA--NH2] ({Acetyl(2-naphthyl)}-GGRIDR[tBuAla]-NH2) | 15.0
CC[C@H](C)[C@H](NC(=O)[C@H](CCCNC(=N)N)NC(=O)CNC(=O)CNC(=O)Cc1ccc2ccccc2c1)C(=O)N[C@@H](CC(=O)O)C(=O)N[C@@H](CCCNC(=N)N)C(=O)N[C@H](C(N)=O)c1ccccc1 [AP595, (2-NA)--G--G-- R--I--D--R--Phg--NH2] ({Acetyl(2-naphthyl)}-GGRIDR[Phg]-NH2) | 100.0
CCNC(=O)[C@H]([C@@H](C)CC)N(C)C(=O)[C@H](CCCNC(=N)N)NC(=O)[C@H](CC(=O)O)NC(=O)[C@@H](NC(=O)[C@H](CCCNC(=N)N)NC(=O)CNC(=O)CNC(=O)Cc1ccc2ccccc2c1)[C@@H](C)CC [AP596, (2-NA)--G--G--R--I--D--R--NMeIle--NH(ethyl)] ({Acetyl(2-naphthyl)}-GGRIDR[NMeI]-NHEt) | 87.3
CC[C@H](C)[C@H](NC(=O)[C@H](CCCNC(=N)N)NC(=O)[C@H](CC(=O)O)NC(=O)[C@@H](NC(=O)[C@H](CCCNC(=N)N)NC(=O)CNC(=O)CCCc1c[nH]c2ccccc12)[C@@H](C)CC)C(=O)NCC(=O)N[C@@H](C)C(N)=O [AP597, (3-IB)--G--R--I--D--R--I--G--A--NH2] ({Butyryl(4-indol-3-yl)}-GRIDRIGA-NH2) | 9.3
CC[C@H](C)[C@H](NC(=O)[C@H](CCCNC(=N)N)NC(=O)[C@H](CC(=O)O)NC[C@@H](NC(=O)[C@H](CCCNC(=N)N)NC(=O)Cc1ccc(NC(=O)Cc2ccc3ccccc3c2)cc1)[C@@H](C)CC)C(N)=O [AP701] | 60.3
CC[C@H](C)[C@H](NC(=O)[C@H](CCCNC(=N)N)NC(=O)[C@H](CC(=O)O)NC(=O)[C@@H](NC(=O)[C@H](CCCNC(=N)N)NCC1CCN(C(=O)Cc2ccc3ccccc3c2)CC1)[C@@H](C)CC)C(N)=O [AP704] (H-[X8](Acetyl(2-naphthyl))IDRI-NH2) | 17.0
CC[C@H](C)[C@H](NC(=O)[C@H](CCCNC(=N)N)NC(=O)[C@H](CC(=O)O)NC(=O)[C@@H](NC(=O)[C@H](CCCNC(=N)N)NC(=O)CCCCCCCNC(=O)COc1ccc2ccccc2c1)[C@@H](C)CC)C(N)=O [AP789, (2-NOA)--NH--(CH2)7 --CO--R--I--D--R--I--NH2] ({Acetyl(2-naphthyloxy)-Aoc}-RIDRI-NH2) | 380
CC[C@H](C)[C@H](NC(=O)[C@H](CCCNC(=N)N)NC(=O)[C@H](CC(=O)O)NC(=O)[C@@H](NC(=O)[C@H](CCCNC(=N)N)NC(=O)Cc1ccc(NC(=O)c2ccc3ccccc3c2)cc1)[C@@H](C)CC)C(N)=O [AP790] (2Naphthoyl-[X1]RIDRI-NH2) | 5.2
CC[C@H](C)[C@H](NC(=O)[C@H](CCCNC(=N)N)NC(=O)[C@H](CC(=O)O)NC(=O)[C@@H](NC(=O)[C@H](CCCNC(=N)N)NC(=O)c1ccc(NC(=O)COc2ccc3ccccc3c2)cc1)[C@@H](C)CC)C(N)=O [AP791] ({Acetyl(2-naphthyloxy)-4Abz}-RIDRI-NH2) | 31.1
CC[C@H](C)[C@H](NC(=O)[C@H](CCCNC(=N)N)NC(=O)[C@H](CC(=O)O)NC(=O)[C@@H](NC(=O)[C@H](CCCNC(=N)N)NC(=O)Cc1ccc(NC(=O)COc2ccc3ccccc3c2)cc1)[C@@H](C)CC)C(N)=O [AP792] ({Acetyl(2-naphthyloxy)}-[X1]RIDRI-NH2) | 6.3
CC[C@H](C)[C@H](NC(=O)[C@H](CCCNC(=N)N)NC(=O)[C@H](CC(=O)O)NC(=O)[C@@H](NC(=O)[C@H](CCCNC(=N)N)NC(=O)C1CCN(C(=O)COc2ccc3ccccc3c2)CC1)[C@@H](C)CC)C(N)=O [AP793] ({Acetyl(2-naphthyloxy)-Inp}-RIDRI-NH2) | 76.8
CC[C@H](C)[C@H](NC(=O)[C@H](CCCNC(=N)N)NC(=O)[C@H](CC(=O)O)NC(=O)[C@@H](NC(=O)[C@H](CCCNC(=N)N)NC(=O)c1ccc(NCC(=O)c2ccc3ccccc3c2)cc1)[C@@H](C)CC)C(N)=O [AP794] (X10-RIDRI-NH2) | 13.1
CC[C@H](C)[C@H](NC(=O)[C@H](CCCNC(=N)N)NC(=O)[C@H](CC(=O)O)NC(=O)[C@@H](NC(=O)[C@H](CCCNC(=N)N)NC(=O)c1ccc(CNC(=O)c2ccc3ccccc3c2)cc1)[C@@H](C)CC)C(N)=O [AP795] ({2Naphthoyl-4Amb}-RIDRI-NH2) | 11.9
CC[C@H](C)[C@H](NC(=O)[C@H](CCCNC(=N)N)NC(=O)[C@H](CC(=O)O)NC(=O)[C@@H](NC(=O)[C@H](CCCNC(=N)N)NC(=O)Cc1ccc(NCCc2ccc3ccccc3c2)cc1)[C@@H](C)CC)C(N)=O [AP796] (X4-RIDRI-NH2) | 27.3
CC[C@H](C)[C@H](NC(=O)[C@H](CCCNC(=N)N)NC(=O)[C@H](CC(=O)O)NC(=O)[C@@H](NC(=O)[C@H](CCCCN)NC(=O)Cc1ccc(NC(=O)COc2ccc3ccccc3c2)cc1)[C@@H](C)CC)C(N)=O [AP798] ({Acetyl(2-naphthyloxy)}-[X1]KIDRI-NH2) | 3.95
CC[C@H](C)[C@H](NC(=O)[C@H](CCCCN)NC(=O)[C@H](CC(=O)O)NC(=O)[C@@H](NC(=O)[C@H](CCCNC(=N)N)NC(=O)Cc1ccc(NC(=O)Cc2ccc3ccccc3c2)cc1)[C@@H](C)CC)C(N)=O [AP799] ({Acetyl(2-naphthyl)}-[X1]RIDKI-NH2) | 3.6
